# Experimental data from patent publication US9694073B2, “Small molecule inhibitors of polynucleotide kinase/phosphatase, poly(ADP-ribose) polymerase and uses thereof” (THE GOVERNORS OF THE UNIVERSITY OF ALBERTA, priority 2009, dated 2017).
# “Also recorded” adds a separate entry of the source.
# Tests used:
# [1] = target: T1, hPNKP 3'-phosphatase activity (Homo sapiens, UniProt Q96T60); assay: Conventional radio-gel assay for hPNKP 3'-phosphatase activity; assay type: biochemical
# T1 construct: made in house; host or cells: bacteria (said only for the batch compared with aprataxin)
# aprataxin (APTX) = target: T2, aprataxin (APTX) (Homo sapiens, UniProt Q7Z2E3); assay: 3'-DNA phosphatase activity of aprataxin; assay type: biochemical; conditions: 50 μM
# T2 construct: made in house; host or cells: E. coli BL21-Gold (DE3), QIAgene expression construct (Qiagen)
# T2 sequence (Q7Z2E3 whole entry): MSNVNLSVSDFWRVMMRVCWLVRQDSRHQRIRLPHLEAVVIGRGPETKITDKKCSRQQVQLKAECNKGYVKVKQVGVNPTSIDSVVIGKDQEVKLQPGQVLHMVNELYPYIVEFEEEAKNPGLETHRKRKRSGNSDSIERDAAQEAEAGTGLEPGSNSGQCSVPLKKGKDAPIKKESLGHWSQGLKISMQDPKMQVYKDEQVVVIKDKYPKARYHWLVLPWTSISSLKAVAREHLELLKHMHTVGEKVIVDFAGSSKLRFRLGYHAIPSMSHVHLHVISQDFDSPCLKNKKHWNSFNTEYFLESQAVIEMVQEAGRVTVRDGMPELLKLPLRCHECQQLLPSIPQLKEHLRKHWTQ
# Method: Human recombinant aprataxin (APTX) protein with an N-terminal 6× His tag was expressed in BL21-Gold (DE3) E. coli competent cells (Stratagene, La Jolla, Calif.) using the QIAgene expression construct (Qiagen, Mississauga, ON). A single colony of kanamycin resistant E. coli was used to inoculate a 200-ml overnight culture (e.g., about 12 to about 16 hours in Luria-Bertani (LB) media containing 30 μg/ml kanamycin. Four 50-ml fractions of overnight culture were then subcultured into 4×1 L LB without kanamycin. Once the culture reached an optical density of ˜0.6 at 600 nm, protein expression was induced using 0.2 mM isopropyl-1-thio-β-galactopyranoside (Sigma, St Louis, Mo.) at 37° C. for 2 hours. Cells were harvested by centrifugation at 10,000 rpm for 10 minutes at 4° C. and resuspended in 40 ml buffer (50 mM NaH2PO4, 250 mM NaCl, 1 mM PMSF, at pH 7.9). The solution was then stirred on ice for 30 minutes in the presence of 30 mg lysozyme and 4 mg PMSF, 1 μg/ml each of pepstatin and leupeptin. […] His-APTX concentration was then determined using the Bio-Rad Protein assay (Bio-Rad, Mississauga, ON).
# It was also tested whether A12B4C3 could inhibit aprataxin, which is another human DNA 3′-phosphatase. For this experiment, the oligonucleotide substrate was incubated with equal quantities of the two enzymes that were purified from bacteria on the same day. […]
# PP-1cγ = target: T3, PP-1cγ (Homo sapiens, UniProt P36873); assay: PP-1cγ pNPP phosphatase assay; assay type: biochemical; conditions: concentration as high as 83.3 μM
# T3 construct: made in house; host or cells: E. coli
# T3 sequence (P36873 whole entry): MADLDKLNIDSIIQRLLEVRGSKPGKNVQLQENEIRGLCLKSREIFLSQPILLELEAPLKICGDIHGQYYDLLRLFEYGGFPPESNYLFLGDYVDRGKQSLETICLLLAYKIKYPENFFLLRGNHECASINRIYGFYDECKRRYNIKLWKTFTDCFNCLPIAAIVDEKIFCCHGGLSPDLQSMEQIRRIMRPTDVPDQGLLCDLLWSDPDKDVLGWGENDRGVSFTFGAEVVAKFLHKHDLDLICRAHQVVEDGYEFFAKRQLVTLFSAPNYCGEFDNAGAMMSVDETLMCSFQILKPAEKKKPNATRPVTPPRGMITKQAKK
# Method: PP-1cγ and calcineurin activity was analyzed, using a colorimetric p-nitrophenol phosphate (pNPP) assay as previously described (33). The reaction were carried out in a 96-well microplate with a final volume of 60 μl containing 40 μl of pNPP assay buffer (50 mM Tris, pH 7.4, 0.1 mM EDTA, 30 mM MgCl2, 0.5 mM MnCl2, 1 mg/ml BSA, 0.2% β-mercaptoethanol), 0.03 μg PP-1cγ (specific activity>30 units per mg) or a catalytically equivalent quantity of calcineurin and 10 μl of 0.5 mM DNA 3′-phosphatase inhibitor sample in DMSO or 10 μl of 50 μM A12B4C3 sample in DMSO, or control solvent. After a 10-minute incubation at 37° C., 10 μl of 30 mM pNPP was added to each well and incubated for an additional of 60 minutes and 45 minutes for PP-1cγ and calcineurin, respectively.
# [2] = Clonogenic survival assay, compound alone; assay type: cell-based; conditions: 1 μM, exposure up to 24 hours (data not shown)
# Method: (§1) The effect of hPNKP inhibition by A12B4C3 on cellular survival following exposure to ionizing radiation was measured in A549, A549δPNKP and MDA-MB-231 and MDA-MB-231δPNKP cells by clonogenic assays. Cells were seeded on 60-mm tissue culture plates at various concentrations to give between about 100-1000 colonies per plate and returned to the incubator overnight to allow the cells to attach. For radiosensitization studies, the cells were incubated with or without 1 μM A12B4C3 for 2 hours before irradiation and then exposed to increasing doses of γ-radiation (^60Co Gammacell; Atomic Energy of Canada Limited, Ottawa). After irradiation, cells were incubated for a further 24 hours in the same media and then washed twice with phosphate-buffered saline (PBS) and incubated in fresh media without the inhibitor. Colonies were stained with crystal violet after 10 to 14 days and counted with an automated Colcount colony counter (Oxford Optronix, Oxford, UK).
# A12B4C3 was first tested for inherent toxicity. Cytotoxicity was measured by cell proliferation assay after exposure of A549 human lung adenocarcinoma cells and MDA-MB-231 cells to different doses of the compound for 72 hours (FIG. 6A). A dose-dependent reduction in cell proliferation up to 50% at 100 μM A12B4C3 was observed. […] No effect on cell proliferation was detected after exposure to 1 μM A12B4C3.
# A549 cells = assay: Radiosensitization, clonogenic assay; assay type: cell-based, human; conditions: 1 μM, 2 hours before irradiation and 24 hours after
# Method: as §1
# (§2) The capacity of A12B4C3 to act as a radiosensitizer was then examined. A549 cells were incubated with 1 μM A12B4C3 for 2 hours prior to irradiation and then maintained in the presence of the compound for a further 24 hours. […] This radiation response was nearly identical to that seen with cells depleted of PNKP by stable expression of shRNA (A549δPNKP).
# [3] = tested on: A549δPNKP cells (PNKP-depleted); assay: Radiosensitization, clonogenic assay; assay type: cell-based, human; conditions: 1 μM
# Method: as §1, §2
# [4] = tested on: M059J cells (DNA-PKcs negative); assay type: cell-based, human
# [5] = target: human PNKP phosphatase activity (Homo sapiens, UniProt Q96T60); assay: PiColorlock Gold assay for 3'-phosphatase activity (release of inorganic phosphate)
smiles,measurement,setting,value
"CCCCCCCCCCC(O)C1C=CC2C(=O)N(c3ccccc3)C(=O)C2N1Nc1ccc([N+](=O)[O-])cc1 (stereo not shown) [Compound A12B4C3, 2-(1-hydroxyundecyl)-1-(4-nitrophenylamino)-6-phenyl-6,7a-dihydro-1H-pyrrolo[3,4-b]pyridine-5,7(2H,4aH)-dione]","inhibition of hPNKP phosphatase activity, radio-gel assay",[1],inhibited
same,inhibition of aprataxin phosphatase activity,aprataxin (APTX),refractory
same,inhibition of PP-1γ,PP-1cγ,Neither enzyme displayed inhibition; also recorded: no inhibition
same,cytotoxicity by clonogenic survival assay,[2],lack of cytotoxicity
same,radiosensitization (γ-radiation survival curves),A549 cells,almost doubled the radiosensitivity
same,radiosensitization (γ-radiation survival curves),[3],failed to sensitize
same,synthetic lethality in M059J cells,[4],no synthetic lethality is seen
same,concentration giving near maximal inhibition,[5]; PiColorLock Gold,5 µM
same,potency rank among the five PNKP inhibitors,"[5]; PiColorLock Gold, FIG. 4B",most potent
same,inhibition at 50 µM,[5]; read-out: inhibition of human PNKP,~85%
